Columns and labels:
human PPAR gamma = biological target: T1, human PPAR gamma (Homo sapiens, UniProt P37231); assay: Transient transfection (transactivation) assay in CV-1 cells, hPPAR gamma; type: cell-based; details: PPAR transactivation activity, GAL4 chimera, concentration giving 50% of maximum activity, read-out: human γEC50
T1 construct: expressed in transfected cells; host or cells: CV-1 cells
T1 sequence (P37231 238-503 limits assumed): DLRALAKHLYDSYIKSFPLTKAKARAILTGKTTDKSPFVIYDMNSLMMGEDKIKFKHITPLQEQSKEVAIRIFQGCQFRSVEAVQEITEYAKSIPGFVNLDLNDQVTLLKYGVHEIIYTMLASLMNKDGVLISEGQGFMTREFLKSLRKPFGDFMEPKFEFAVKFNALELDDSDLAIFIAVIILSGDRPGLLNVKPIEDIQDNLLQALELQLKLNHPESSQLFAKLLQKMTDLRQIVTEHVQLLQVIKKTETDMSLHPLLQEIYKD
Source text: (§1) Compounds were screened for functional potency in transient transfection assays in CV-1 cells for their ability to activate the PPAR subtypes (transactivation assay). A previously established chimeric receptor system was utilized to allow comparison of the relative transcriptional activity of the receptor subtypes on the same target gene and to prevent endogenous receptor activation from complicating the interpretation of results. See, for example, Lehmann, J. M.; Moore, L. B.; Smith-Oliver, T. A.; Wilkison, W. O.; Willson, T. M.; Kliewer, S. A., An antidiabetic thiazolidinedione is a high affinity ligand for peroxisome proliferator-activated receptor γ (PPARγ), J. Biol. Chem., 1995, 270, 12953–6. The ligand binding domains for murine and human PPAR alpha, PPAR gamma, and PPAR delta were each fused to the yeast transcription factor GAL4 DNA binding domain. CV-1 cells were transiently transfected with expression vectors for the respective PPAR chimera along with a reporter construct containing five copies of the GAL4 DNA binding site driving expression of secreted placental alkaline phosphatase (SPAP) and β-galactosidase. After 16 h, the medium was exchanged to DME medium supplemented with 10% delipidated fetal calf serum and the test compound at the appropriate concentration. After an additional 24 h, cell extracts were prepared and assayed for alkaline phosphatase and β-galactosidase activity. Alkaline phosphatase activity was corrected for transfection efficiency using the β-galactosidase activity as an internal standard (see, for example, Kliewer, S. A., et. al. Cell 83, 813–819 (1995)). Rosiglitazone (BRL 49653) was used as a positive control in the hPPAR gamma assay. The positive control in the hPPAR alpha assays was 2-methyl-2-[4-{[(4-methyl-2-[4-trifluoromethylphenyl]-thiazol-5-yl-carbonyl)amino]methyl}-phenoxy]propionic acid. The positive control for PPAR delta assays was 2-{2-methyl-4-[({4-methyl-2-{trifluoromethyl)phenyl]-1,3-thiazol-5-yl}methyl)sulfanyl]phenoxy}acetic acid.

human PPAR alpha = biological target: T2, human PPAR alpha (Homo sapiens, UniProt Q07869); assay: Transient transfection (transactivation) assay in CV-1 cells, hPPAR alpha; type: cell-based; details: PPAR transactivation activity, GAL4 chimera, concentration giving 50% of maximum activity, read-out: human αEC50
T2 construct: expressed in transfected cells; host or cells: CV-1 cells
T2 sequence (Q07869 239-466 limits assumed): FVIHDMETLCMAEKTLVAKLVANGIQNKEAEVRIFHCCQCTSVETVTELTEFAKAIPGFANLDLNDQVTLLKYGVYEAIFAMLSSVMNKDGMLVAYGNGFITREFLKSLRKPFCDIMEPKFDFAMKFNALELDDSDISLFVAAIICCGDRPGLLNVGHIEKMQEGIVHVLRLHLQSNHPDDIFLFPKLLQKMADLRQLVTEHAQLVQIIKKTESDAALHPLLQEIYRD
Source text: as §1

human PPAR delta = biological target: T3, human PPAR delta (Homo sapiens, UniProt Q03181); assay: Transient transfection (transactivation) assay in CV-1 cells, hPPAR delta; type: cell-based; details: PPAR transactivation activity, GAL4 chimera, concentration giving 50% of maximum activity, read-out: human δEC50
T3 construct: expressed in transfected cells; host or cells: CV-1 cells
T3 sequence (Q03181 211-439 limits assumed): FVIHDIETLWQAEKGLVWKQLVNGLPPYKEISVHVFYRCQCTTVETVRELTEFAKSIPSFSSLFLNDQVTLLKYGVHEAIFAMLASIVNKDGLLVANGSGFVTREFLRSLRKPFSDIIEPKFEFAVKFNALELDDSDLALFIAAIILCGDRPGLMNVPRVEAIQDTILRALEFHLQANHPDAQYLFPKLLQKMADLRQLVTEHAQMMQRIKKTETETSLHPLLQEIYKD
Source text: as §1

| SMILES | EC50 (human PPAR gamma) [nM] | EC50 (human PPAR alpha) [nM] | melting point [°C] | EC50 (human PPAR delta) [nM] |
| --- | --- | --- | --- | --- |
| Cc1cc(OCc2nc(-c3ccc(C(C)(C)C)cc3)no2)ccc1OC(C)(C)C(=O)O [Example 10, 2-methyl-2-[4-(3-(4-tert-butyl-phenyl)-[1,2,4]oxadiazol-5-ylmethoxy]-2-methyl-phenoxy]-propionic acid] | 11400 | 24 | 155 to 157 | – |
| Cc1cc(OCc2nc(-c3ccc(C(C)C)cc3)no2)ccc1OC(C)(C)C(=O)O [Example 11] | 10000 | 59 | 138 | 9310 |
| Cc1cc(OCc2nc(-c3ccc(C(F)(F)F)cc3)no2)ccc1OC(C)(C)C(=O)O [Example 12, 2-methyl-2-{4-[3-(4-trifluoromethyl-phenyl)-[1,2,4]oxadiazol-5-ylmethoxy]-2-methyl-phenoxy}-propionic acid] | 4300 | 36 | 170 | 311 |
| CC(C)(Oc1ccc(OCc2nc(-c3ccc(C(C)(C)C)cc3)no2)cc1)C(=O)O [Example 13, 2-methyl-2-[4-(3-(4-tert-butyl-phenyl)-[1,2,4]oxadiazol-5-ylmethoxy]-phenoxy]-propionic acid] | 850 | 92 | 138 to 140 | – |
| CC(C)c1ccc(-c2noc(COc3ccc(OC(C)(C)C(=O)O)cc3)n2)cc1 [Example 14] | 10000 | 77 | 117 | – |
| CC(C)(Oc1ccc(OCc2nc(-c3ccc(C(F)(F)F)cc3)no2)cc1)C(=O)O [Example 15, 2-methyl-2-{4-[3-(4-trifluoromethyl-phenyl)-[1,2,4]oxadiazol-5-ylmethoxy]-phenoxy}-propionic acid] | 10000 | 98 | 164 | 4510 |
| CC(C)c1ccc(-c2nc(COc3ccc(OC(C)(C)C(=O)O)cc3)no2)cc1 [Example 16, 2-methyl-2-{4-[5-(4-isopropyl-phenyl)-[1,2,4]oxadiazol-3-ylmethoxy]-phenoxy}propionic acid] | 10000 | 29 | – | 8400 |
| CC(C)(Oc1ccc(OCc2noc(-c3ccc(C(C)(C)C)cc3)n2)cc1)C(=O)O [Example 17, 2-methyl-2-{4-[5-(4-tert-butyl-phenyl)-[1,2,4]oxadiazol-3-ylmethoxy]-phenoxy}propionic acid] | 10000 | 40 | – | – |

Reference: patent US7141591B2, “1,2,4-oxadiazole derivatives as hPPAR alpha agonists” (SmithKline Beecham Corporation, priority 2000, dated 2006)
